Molecules are shown by their SMILES.

Chain of human mGluR5 receptor (P41594 21-1212): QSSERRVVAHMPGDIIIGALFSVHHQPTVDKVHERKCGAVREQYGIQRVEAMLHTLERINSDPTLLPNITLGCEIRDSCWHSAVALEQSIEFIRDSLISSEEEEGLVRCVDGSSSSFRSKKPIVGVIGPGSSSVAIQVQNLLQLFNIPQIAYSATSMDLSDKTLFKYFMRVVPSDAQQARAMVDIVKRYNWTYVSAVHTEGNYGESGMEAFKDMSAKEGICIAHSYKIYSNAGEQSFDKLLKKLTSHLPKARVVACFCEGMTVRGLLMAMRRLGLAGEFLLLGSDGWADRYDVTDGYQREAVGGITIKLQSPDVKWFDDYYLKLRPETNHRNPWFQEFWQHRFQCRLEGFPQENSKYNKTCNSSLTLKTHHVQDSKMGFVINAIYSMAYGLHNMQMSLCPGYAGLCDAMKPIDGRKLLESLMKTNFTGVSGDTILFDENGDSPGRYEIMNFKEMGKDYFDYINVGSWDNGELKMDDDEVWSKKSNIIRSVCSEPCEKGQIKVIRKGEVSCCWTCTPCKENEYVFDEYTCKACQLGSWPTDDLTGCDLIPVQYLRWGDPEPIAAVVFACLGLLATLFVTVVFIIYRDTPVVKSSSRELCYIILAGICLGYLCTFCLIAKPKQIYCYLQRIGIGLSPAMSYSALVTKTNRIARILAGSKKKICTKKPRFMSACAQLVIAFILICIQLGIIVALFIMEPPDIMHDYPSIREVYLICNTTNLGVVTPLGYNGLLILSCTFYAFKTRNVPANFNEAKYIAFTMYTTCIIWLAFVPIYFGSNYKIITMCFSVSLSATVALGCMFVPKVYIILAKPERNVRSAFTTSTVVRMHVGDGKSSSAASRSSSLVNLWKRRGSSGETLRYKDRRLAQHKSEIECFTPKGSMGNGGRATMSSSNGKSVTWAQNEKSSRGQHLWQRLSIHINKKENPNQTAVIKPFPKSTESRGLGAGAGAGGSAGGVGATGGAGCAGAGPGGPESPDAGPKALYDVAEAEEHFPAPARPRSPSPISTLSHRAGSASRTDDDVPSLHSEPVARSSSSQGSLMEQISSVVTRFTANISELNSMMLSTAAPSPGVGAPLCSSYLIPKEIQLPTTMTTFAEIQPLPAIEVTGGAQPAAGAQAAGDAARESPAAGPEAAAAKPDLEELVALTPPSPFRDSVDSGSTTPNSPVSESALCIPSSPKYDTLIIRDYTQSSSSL

The assay concerns the target human mGluR5 receptor (Homo sapiens (Human), UniProt P41594). In words: Calcium influx assay based on fluorescence (mGluR5 PAM activity). To be noted: human mGluR5 receptor-overexpressed HEK293 cell line; L-glutamate EC20; Fluo-4, FLIPR. Summed up:
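HEK293 cells overexpressing human mGluR5, loaded 1 h with Fluo-4 at 37° C. Compounds (10 μM to 10 nM final, 0.1–0.2% DMSO) added with an EC20 concentration of L-glutamate, and Ca2+ response read by FLIPR at room temperature. Activity scaled as 0% for EC20 glutamate alone and 100% for glutamate maximum.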
The term EC50 denotes the concentration at which the effect is half-maximal. As to `COc1cc(F)ccc1-c1cnc2nc(COc3ccccn3)cn2c1` [Example 104, 6-(4-fluoro-2-methoxyphenyl)-2-(pyridin-2-yloxymethyl)imidazo[1,2-a]pyrimidine], the EC50 fell in the range of 100 to 500 nM.

`Fc1ccc(OCc2cn3cc(-c4ccc(F)cc4C(F)(F)F)cnc3n2)nc1` [Example 119, 2-[(5-fluoro-2-pyridyl)oxymethyl]-6-[4-fluoro-2-(trifluoromethyl)phenyl]imidazo[1,2-a]pyrimidine]: the concentration for a half-maximal effect (EC50) is 100 to 500 nM.

For the molecule `OCc1cc(F)ccc1-c1cnc2nc(COc3cncc(F)c3)cn2c1` [Example 177, [5-fluoro-2-[2-[(5-fluoro-3-pyridyl)oxymethyl]imidazo[1,2-a]pyrimidin-6-yl]phenyl]methanol], the concentration for a half-maximal effect (EC50) is 500 to 1000 nM.

Turning to `Oc1ccccc1-c1cnc2nc(COc3ccccc3)cn2c1` [Example 16, 6-(2-hydroxyphenyl)-2-phenoxymethylimidazo[1,2-a]pyrimidine], the EC50 was 500 to 1000 nM.

On to `Nc1cc(-c2cnc3nc(COc4ccccc4)cn3c2)ccc1F` [Example 12, 6-(3-amino-4-fluorophenyl)-2-phenoxymethylimidazo[1,2-a]pyrimidine], for which the EC50 was in the range of 500 to 1000 nM.

With `COc1cc(F)ccc1-c1cnc2nc(COc3cncc(F)c3)cn2c1` [Example 155, 6-(4-fluoro-2-methoxyphenyl)-2-(5-fluoropyridin-3-yloxymethyl)imidazo[1,2-a]pyrimidine], the EC50 was 100 to 500 nM.

With `Clc1ccc(-c2cnc3nc(COc4ccccc4)cn3c2)cn1` [Example 34, 6-(6-chloropyridin-3-yl)-2-phenoxymethylimidazo[1,2-a]pyrimidine], the EC50 was in the range of 100 to 500 nM.

As to `COc1ccc(-c2cnc3nc(COc4ccc(F)cc4)cn3c2)cc1N` [Example 84, 5-[2-[(4-fluorophenoxy)methyl]imidazo[1,2-a]pyrimidin-6-yl]-2-methoxy-aniline], the EC50 is 500 to 1000 nM.

For `Fc1ncccc1-c1cnc2nc(COc3ccccc3)cn2c1` [Example 29, 6-(2-fluoropyridin-3-yl)-2-phenoxymethylimidazo[1,2-a]pyrimidine], the half-maximal effective concentration (EC50) lay within 100 to 500 nM.

For the molecule `Fc1cccc(OCc2cn3cc(-c4ccnc(F)c4)cnc3n2)c1` [Example 79, 2-[(3-fluorophenoxy)methyl]-6-(2-fluoro-4-pyridyl)imidazo[1,2-a]pyrimidine], the EC50 is 100 to 500 nM.

As to `Fc1ccc(-c2cnc3nc(COc4ccncc4)cn3c2)c(F)c1` [Example 152, 6-(2,4-difluorophenyl)-2-(pyridin-4-yloxymethyl)imidazo[1,2-a]pyrimidine], the EC50 fell in the range of 100 to 500 nM.

`COc1cc(C#N)ccc1-c1cnc2nc(COc3ccc(F)cn3)cn2c1` [Example 137, 4-[2-[(5-fluoro-2-pyridyl)oxymethyl]imidazo[1,2-a]pyrimidin-6-yl]-3-methoxy-benzonitrile]: the EC50 was in the range of 100 to 500 nM.

For the molecule `Cc1cc(F)ccc1-c1cnc2nc(COc3ccc(F)cn3)cn2n1` [Example 192, 2-(4-fluoro-2-methyl-phenyl)-6-[(5-fluoro-2-pyridyl)oxymethyl]imidazo[1,2-b][1,2,4]triazine], the EC50 was 100 to 500 nM.

With `Fc1ccc(-c2cnc3nc(COc4ccccc4)cn3c2)c(Cl)c1` [Example 15, 6-(2-chloro-4-fluorophenyl)-2-phenoxymethylimidazo[1,2-a]pyrimidine], the EC50 was 100 to 500 nM.

For the molecule `Oc1cc(-c2cnc3nc(COc4ccc(F)cc4)cn3c2)ccc1F` [Example 55, 2-fluoro-5-[2-[(4-fluorophenoxy)methyl]imidazo[1,2-a]pyrimidin-6-yl]phenol], the EC50 fell in the range of 100 to 500 nM.

With `Nc1ccccc1-c1cnc2nc(COc3ccc(F)cc3)cn2c1` [Example 66, 2-[2-[(4-fluorophenoxy)methyl]imidazo[1,2-a]pyrimidin-6-yl]aniline], the EC50 is 100 to 500 nM.

In the case of `FCc1cc(F)ccc1-c1cnc2nc(COc3ccc(F)cc3)cn2c1` [Example 199, 6-[4-fluoro-2-(fluoromethyl)phenyl]-2-[(4-fluorophenoxy)methyl]imidazo[1,2-a]pyrimidine], the EC50 lay within 100 to 500 nM.

In the case of `COc1cc(Cl)ccc1-c1cnc2nc(COc3ccccn3)cn2c1` [Example 111, 6-(4-chloro-2-methoxyphenyl)-2-(pyridin-2-yloxymethyl)imidazo[1,2-a]pyrimidine], the EC50 fell in the range of 100 to 500 nM.

Take `Fc1ccc(-c2cnc3nc(COc4ccccc4)cn3c2)nc1` [Example 40, 6-(5-fluoro-2-pyridyl)-2-phenoxymethylimidazo[1,2-a]pyrimidine]: the EC50 was 100 to 500 nM.

As for `Nc1ccccc1-c1cnc2nc(COc3ccccc3)cn2c1` [Example 10, 6-(2-aminophenyl)-2-phenoxymethylimidazo[1,2-a]pyrimidine], the half-maximal effective concentration (EC50) lay in the range of 100 to 500 nM.

Turning to `Fc1ccc(-c2cnc3nc(COc4ccc(F)cn4)cn3c2)cc1` [Example 129, 6-(4-fluorophenyl)-2-[(5-fluoro-2-pyridyl)oxymethyl)imidazo[1,2-a]pyrimidine], the EC50 lay within 500 to 1000 nM.

For the molecule `Nc1cc(-c2cnc3nc(COc4ccc(F)cn4)cn3c2)ccc1F` [Example 133, 2-fluoro-5-[2-[(5-fluoro-2-pyridyl)oxymethyl]imidazo[1,2-a]pyrimidin-6-yl]aniline], the EC50 was 500 to 1000 nM.

With `Cc1cc(F)ccc1-c1cnc2nc(COc3cncc(F)c3)cn2c1` [Example 154, 6-(4-fluoro-2-methylphenyl)-2-(5-fluoro-pyridin-3-yloxymethyl)imidazo[1,2-a]pyrimidine], the EC50 was in the range of 100 to 500 nM.

For `Cc1ccc(N)c(-c2cnc3nc(COc4ccc(F)cc4)cn3c2)c1` [Example 76, 2-[2-[(4-fluorophenoxy)methyl]imidazo[1,2-a]pyrimidin-6-yl]-4-methyl-aniline], the EC50 is 100 to 500 nM.

On to `Nc1cc(F)ccc1-c1cnc2nc(COc3ccc(F)cc3)cn2c1` [Example 77, 5-fluoro-2-[2-[(4-fluorophenoxy)methyl]imidazo[1,2-a]pyrimidin-6-yl]aniline], for which the EC50 fell in the range of 100 to 500 nM.

For `Oc1ccc(-c2cnc3nc(COc4ccc(F)cc4)cn3c2)cn1` [Example 90, 5-[2-[(4-fluorophenoxy)methyl]imidazo[1,2-a]pyrimidin-6-yl]pyridin-2-ol], the EC50 was in the range of 100 to 500 nM.

For the molecule `Cc1cc(F)ccc1-c1cnc2nc(COc3cccc(F)n3)cn2n1` [Example 191], the EC50 is 500 to 1000 nM.

For the molecule `Cc1cc(F)ccc1-c1cnc2nc(COc3ccc(F)cn3)cn2c1` [Example 114, 6-(4-fluoro-2-methyl-phenyl)-2-[(5-fluoro-2-pyridyl)oxymethyl)imidazo[1,2-a]pyrimidine], the EC50 lay in the range of 100 to 500 nM.

Turning to `Nc1cc(-c2cnc3nc(COc4ccccn4)cn3c2)ccc1F` [Example 134, 2-fluoro-5-[2-(2-pyridyloxymethyl)imidazo[1,2-a]pyrimidin-6-yl]aniline], the EC50 was in the range of 100 to 500 nM.

As for `Fc1ccc(-c2cnc3nc(COc4ccnc(F)c4)cn3c2)c(F)c1` [Example 161, 6-(2,4-difluorophenyl)-2-(2-fluoropyridin-4-yloxymethyl)imidazo[1,2-a]pyrimidine], the EC50 lay in the range of 100 to 500 nM.

In the case of `COCc1cc(F)ccc1-c1cnc2nc(COc3ccccn3)cn2c1` [Example 141, 6-[4-fluoro-2-(methoxymethyl)phenyl]-2-(2-pyridyloxymethyl)imidazo[1,2-a]pyrimidine], the EC50 lay in the range of 100 to 500 nM.

In the case of `COc1cc(-c2cnc3nc(COc4ccc(F)cc4)cn3c2)ccn1` [Example 99, 2-[(4-fluorophenoxy)methyl]-6-(2-methoxy-4-pyridyl)imidazo[1,2-a]pyrimidine], the EC50 lay within 500 to 1000 nM.

Source of the values: patent US9745310B2 (SK BIOPHARMACEUTICALS CO., LTD., priority 2015, dated 2017).
